Common to all, as to experiment: MIC determination by in vitro antifungal assay
For assay [1], the system named is Aspergillus fumigatus NRRL 163 (Q). In kind it is cell-based. To be noted: strain Q = A. fumigatus NRRL 163. An outline of the steps:
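Broth microdilution following CLSI M27-A3/M38-A2 with minor modifications, in RPMI 1640 buffered to pH 7.0 with 0.165 M MOPS. Yeast inoculum came from an overnight YPD culture, set to OD600 0.12 (˜1×10^6 CFU/mL) and then diluted 1:100. Compounds were tested in two-fold dilutions at 0.06-31.3 μg/mL for 48 h at 35° C.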

The test system of assay [2] is A. fumigatus NRRL 5109 (R). In kind it is cell-based, Aspergillus fumigatus. To be noted: strain R = A. fumigatus NRRL 5109. As for the experimental part: (§1) 10 mg/mL stock solutions of compounds 1a-9j were prepared in dimethyl sulfoxide (DMSO) and were stored at −20° C. in the dark. The antifungal agent amphotericin B (AmB) was purchased from VWR (Radnor PA, USA). AmB was dissolved in DMSO at a final concentration of 5 mg/mL and was stored at −20° C., protected from light. Candida albicans American Type Culture Collection (ATCC) 10231 (strain A), C. albicans ATCC 64124 (B), and C. albicans ATCC MYA-2876 (C) were obtained from Utah State University. C. albicans ATCC 90819 (D), C. albicans ATCC MYA-2310 (E), C. albicans ATCC MYA-1237 (F), C. albicans ATCC MYA-1003 (G), Candida glabrata ATCC 2001 (H), Candida krusei ATCC 6258 (I), Candida parapsilosis ATCC 22019 (J), Cryptococcus neoformans ATCC MYA-895 (M), Aspergillus terreus ATCC MYA-3633 (N), and Aspergillus flavus ATCC MYA-3631 (0) were obtained from the American Type Culture Collection (ATCC; Manassas, VA, USA). Aspergillus nidulans ATCC 38163 (P) was obtained from University of Kentucky. Clinically derived Aspergillus fumigatus NRRL 163 (Q), A. fumigatus NRRL 5109 (R), and A. fumigatus NRRL 6113 (S) were obtained from Northern Regional Research Laboratory (NRRL). Candida auris 384 (K), C. auris 390 (L), and fungal strains 381-400 (including 10 C. auris (AR Bank #381-390), 3 Candida duobushaemulonii (AR Bank #391, AR Bank #392, and AR Bank #394), 2 Candida haemulonii (AR Bank #393 and AR Bank #395), 1 Kodameae ohmeri (AR Bank #396), 1 C. krusei (AR Bank #397), 1 Candida lusitaniae (AR Bank #398), and 2 Saccharomyces cerevisiae strains (AR Bank #399 and AR Bank #400)) were part of a larger fungal library from the AR Bank maintained by the Centers for Disease Control and Prevention (CDC; Atlanta, GA, USA). Filamentous fungi and yeasts were cultivated at 35° C. in RPMI 1640 medium (with L-glutamine, without sodium bicarbonate, Sigma-Aldrich, St. Louis, MO) buffered to a pH of 7.0 with 0.165 M morpholinepropanesulfonic acid (MOPS) buffer (Sigma-Aldrich). For cytotoxicity assays, HepG2 and the mouse macrophage cell line J774A.1 were obtained from University of Kentucky. The human embryonic kidney cell line, HEK-293, was bought from the ATCC. Mammalian cells were grown in Dulbecco's Modified Eagle's Medium (DMEM) (from VWR) with 10% fetal bovine serum (FBS) (from VWR) and 1% Pen/Strep (from ATCC). Cell lines were cultured at 37° C. with 5% CO2 and passaged by trypsinization with 0.05% trypsin: 0.53 mM EDTA (from Sigma-Aldrich).
(§2) The MIC values of compounds 1a-9j against yeast cells (strains A-P and 381-400) were determined in 96-well plates as described in the CLSI documents M27-A3 and M38-A2 with minor modifications.^2 A single colony of freshly prepared yeast cells was used to inoculate 5 mL of yeast extract peptone dextrose (YPD) broth prior to incubation overnight with shaking at 200 rpm at 35° C. From the actively growing yeast culture, 100 µL were then transferred to 900 μL of RPMI 1640 medium and re-adjusted to achieve OD600 of 0.12 (˜1×10^6 CFU/mL). The cell suspension was further diluted to achieve 1:100 in RPMI 1640 medium. 100 μL of cells were added to the wells of a 96-well microtiter plates that contained 100 µL of the compound solution to obtain concentrations of 0.06-31.3 μg/mL of compounds 1a-9j or AmB prior to incubation for 48 h at 35° C.
(§3) Finally, the activity of these monohydrazides was explored against […] non-Candida strains: Cryptococcus neoformans ATCC MYA-895 (M), Aspergillus terreus ATCC MYA-3633 (N), Aspergillus flavus ATCC MYA-3631 (O), Aspergillus nidulans ATCC 38163 (P), Aspergillus fumigatus NRRL 163 (Q), A. fumigatus NRRL 5109 (R), and A. fumigatus NRRL 6113 (S) (Tables 1A and 1B). The double dilution method was used with concentrations ranging from 0.06 to 31.3 j·tg mL^−1 for monohydrazides 1a-9j, and the commercially available positive antifungal control amphotericin B (AmB).

Assay [3] deals with A. fumigatus NRRL 6113 (S). In kind it is cell-based, Aspergillus fumigatus. To be noted: for MIC: strain S = A. fumigatus NRRL 6113. As for the experimental part: as §1, §2, §3
Where [4] appears, read: Aspergillus fumigatus, NRRL163, read-out: MIC.
Where [5] appears, read: Aspergillus fumigatus, NRRL5109, read-out: MIC.
[6] abbreviates: Aspergillus fumigatus, NRRL6113, read-out: MIC.

The results in this text go back to patent US20240425464A1, “Substituted Monohydrazides as Potent Antifungal Agents” (University of Kentucky Research Foundation, priority 2023, published 2024).

Converted amounts (≈) assume the structure as drawn. Read-outs that look alike come from different tables or passages of the source. Some results are limits rather than exact numbers.

`C[C@@H]1[C@H](O)[C@@H](C)/C=C/C=C/C=C/C=C/C=C/C=C/C=C/[C@H](O[C@@H]2O[C@H](C)[C@@H](O)[C@H](N)[C@@H]2O)C[C@@H]2O[C@](O)(C[C@@H](O)C[C@@H](O)[C@H](O)CC[C@@H](O)C[C@@H](O)CC(=O)O[C@H]1C)C[C@H](O)[C@H]2C(=O)O` [AmB, amphotericin B, reference compound]: the MIC in assay [1] is reported as 0.98 μg/mL^−1; in assay [2] it was 0.98 μg/mL^−1; in assay [3], 1.95 μg/mL^−1.
Consider `O=C(NNc1cccc(F)c1)c1ccc(F)cc1F` [Compound 1a], for which the MIC in assay [1], in assay [2] and in assay [3] was above 31.3 μg/mL^−1 in each case.
In the case of `O=C(NNc1ccc(F)cc1)c1ccc(F)cc1F` [Compound 1d], the MIC in assay [1] (setting [4]), in assay [2] (setting [5]) and in assay [3] (setting [6]) was above 31.3 µg/mL each time.
Consider `COc1ccc(NNC(=O)c2ccc(F)cc2F)cc1` [Compound 1f], for which the MIC in assay [1] (setting [4]), in assay [2] (setting [5]) and in assay [3] (setting [6]) was above 31.3 µg/mL in each case.
As for `O=C(NNc1cccc(F)c1)c1ccccn1` [Compound 2a], the MIC in assay [1], in assay [2] and in assay [3] was above 31.3 μg/mL^−1 in each case.
In the case of `O=C(NNc1cccc(Cl)c1)c1ccccn1` [Compound 2b], the MIC in assay [1], in assay [2] and in assay [3] was above 31.3 μg/mL^−1 in each case.
Regarding `COc1cccc(NNC(=O)c2ccccn2)c1` [Compound 2c], the MIC in assay [1] is 7.8 μg/mL^−1; in assay [2], 3.9 μg/mL^−1; in assay [3] it was above 31.3 μg/mL^−1.
On to `O=C(NNc1ccc(F)cc1)c1ccccn1` [Compound 2d], for which the MIC in assay [1] (setting [4]) is 31.3 µg/mL (≈ 135 µM); in assay [2] (setting [5]) it was 7.8 µg/mL (≈ 33.7 µM); in assay [3] (setting [6]), 15.6 µg/mL (≈ 67.5 µM). For the same compound, the “MIC (highest activity against strain S)” value in assay [3] is 15.6 j·tg mL^−1.
Consider `O=C(NNc1ccc(Cl)cc1)c1ccccn1` [Compound 2e], for which the MIC in assay [1] is given as above 31.3 μg/mL^−1; in assay [2], 7.8 μg/mL^−1; in assay [3], 15.6 μg/mL^−1. For the same compound, the “MIC (highest activity against strain S)” value in assay [3] is recorded as 15.6 j·tg mL^−1.
With `COc1ccc(NNC(=O)c2ccccn2)cc1` [Compound 2f], the MIC was above 31.3 µg/mL in assay [1] (setting [4]), above 31.3 µg/mL in assay [2] (setting [5]) and 31.3 µg/mL (≈ 129 µM) in assay [3] (setting [6]).
With `O=C(NNc1ccc(F)cc1F)c1ccccn1` [Compound 2g], the MIC in assay [1] (setting [4]) was above 31.3 µg/mL; in assay [2] (setting [5]) it was 15.6 µg/mL (≈ 62.6 µM); in assay [3] (setting [6]) it was 31.3 µg/mL (≈ 126 µM).
Regarding `O=C(NNc1cc(F)ccc1F)c1ccccn1` [Compound 2h], the results for the MIC in assay [1] (setting [4]), in assay [2] (setting [5]) and in assay [3] (setting [6]) were above 31.3 µg/mL, 15.6 µg/mL (≈ 62.6 µM) and above 31.3 µg/mL, respectively.
As for `O=C(NNc1cc(F)cc(F)c1)c1ccccn1` [Compound 2i], the MIC in assay [1] (setting [4]) is at most 0.06 µg/mL; in assay [2] (setting [5]) it was at most 0.06 µg/mL; in assay [3] (setting [6]), 31.3 µg/mL (≈ 126 µM).
Turning to `O=C(NNc1cc(Cl)cc(Cl)c1)c1ccccn1` [Compound 2j], the MIC in assay [1] (setting [4]), in assay [2] (setting [5]) and in assay [3] (setting [6]) was above 31.3 µg/mL throughout.
As to `O=C(NNc1cccc(F)c1)c1ccc(F)cn1` [Compound 3a], the MIC in assay [1], in assay [2] and in assay [3] was above 31.3 μg/mL^−1 each time.
`COc1cccc(NNC(=O)c2ccc(F)cn2)c1` [Compound 3c]: the MIC in assay [1], in assay [2] and in assay [3] was above 31.3 μg/mL^−1 throughout.
As to `COc1ccc(NNC(=O)c2ccc(F)cn2)cc1` [Compound 3f], the MIC in assay [1], in assay [2] and in assay [3] was above 31.3 μg/mL^−1 throughout.
On to `O=C(NNc1cccc(F)c1)c1ccc(Br)cn1` [Compound 4a], for which the MIC in assay [1], in assay [2] and in assay [3] was above 31.3 μg/mL^−1 in each case.
For `COc1cccc(NNC(=O)c2ccc(Br)cn2)c1` [Compound 4c], the figures for the MIC in assay [1] (setting [4]), in assay [2] (setting [5]) and in assay [3] (setting [6]) were 15.6 µg/mL (≈ 48.4 µM), 7.8 µg/mL (≈ 24.2 µM) and above 31.3 µg/mL, respectively.
On to `O=C(NNc1ccc(F)cc1)c1cccc(F)n1` [Compound 5d], for which the MIC in assay [1] (setting [4]) worked out at 31.3 µg/mL (≈ 126 µM); in assay [2] (setting [5]), 15.6 µg/mL (≈ 62.6 µM); in assay [3] (setting [6]) it was 15.6 µg/mL (≈ 62.6 µM).
Consider `O=C(NNc1ccc(Cl)cc1)c1cccc(F)n1` [Compound 5e], for which the “MIC (highest activity against strain S)” value in assay [3] is on record as 15.6 j·tg mL^−1.
With `COc1ccc(NNC(=O)c2cccc(F)n2)cc1` [Compound 5f], the MIC in assay [1] (setting [4]) is above 31.3 µg/mL; in assay [2] (setting [5]), above 31.3 µg/mL; in assay [3] (setting [6]), 15.6 µg/mL (≈ 59.7 µM). For the same compound, the “MIC (highest activity against strain S)” value in assay [3] is given as 15.6 j·tg mL^−1.
Take `O=C(NNc1cccc(F)c1)c1ncc(F)cc1F` [Compound 7a]: the MIC in assay [1], in assay [2] and in assay [3] was above 31.3 μg/mL^−1 each time.
In the case of `O=C(NNc1ccc(F)cc1)c1ncc(F)cc1F` [Compound 7d], the MIC in assay [1] (setting [4]), in assay [2] (setting [5]) and in assay [3] (setting [6]) was above 31.3 µg/mL in each case.
`COc1ccc(NNC(=O)c2ncc(F)cc2F)cc1` [Compound 7f]: the MIC in assay [1] (setting [4]), in assay [2] (setting [5]) and in assay [3] (setting [6]) was 31.3 µg/mL (≈ 112 µM) in each case.
With `O=C(NNc1cccc(F)c1)c1nc(F)ccc1F` [Compound 8a], the MIC in assay [1], in assay [2] and in assay [3] was above 31.3 μg/mL^−1 each time.
`O=C(NNc1ccc(F)cc1)c1nc(F)ccc1F` [Compound 8d]: the MIC in assay [1] (setting [4]) was 31.3 µg/mL (≈ 117 µM); in assay [2] (setting [5]), 15.6 µg/mL (≈ 58.4 µM); in assay [3] (setting [6]), above 31.3 µg/mL.
Consider `COc1ccc(NNC(=O)c2nc(F)ccc2F)cc1` [Compound 8f], for which the MIC in assay [1] (setting [4]) was 31.3 µg/mL (≈ 112 µM); in assay [2] (setting [5]), 15.6 µg/mL (≈ 55.9 µM); in assay [3] (setting [6]), 31.3 µg/mL (≈ 112 µM).
As to `O=C(NNc1cccc(F)c1)c1cnccn1` [Compound 9a], the MIC in assay [1], in assay [2] and in assay [3] was above 31.3 μg/mL^−1 each time.
Take `O=C(NNc1cccc(Cl)c1)c1cnccn1` [Compound 9b]: the MIC in assay [1] (setting [4]), in assay [2] (setting [5]) and in assay [3] (setting [6]) was above 31.3 µg/mL throughout.
With `COc1cccc(NNC(=O)c2cnccn2)c1` [Compound 9c], the MIC in assay [1] (setting [4]) is 15.6 µg/mL (≈ 63.9 µM); in assay [2] (setting [5]) it was 7.8 µg/mL (≈ 31.9 µM); in assay [3] (setting [6]) it was above 31.3 µg/mL.
The matching figures for `COc1ccc(NNC(=O)c2cnccn2)cc1` [Compound 9f]: 31.3 µg/mL (≈ 128 µM), 31.3 µg/mL (≈ 128 µM) and 31.3 µg/mL (≈ 128 µM).
